For data set [1], the system named is C57BL/6 mouse spleen cells. The data set can be described thus: Growth arrest of spleen cells cultured with mitogen Con A (thymidine incorporation). The class given is cell-based. The note with it: 48 hours. For orientation: Uptake of a labelled nucleoside into DNA is a usual measure of proliferation.
Description: Growth of spleen cells was evaluated in response to the mitogen Con A (2.5 μg/ml) after 48 hours by radioactive thymidine incorporation. Comparison is made at doses in mg/ml for inhibiting 25%, 50% and 90% of the growth of spleen cells; i.e. IC dose values.
Growth of spleen cells was evaluated in response to the mitogen Con A (2.5 μg/ml) after 48 hours by radioactive thymidine incorporation. Comparison is made at concentrations in mg/ml for inhibiting 25%, 50% and 90% of the growth of spleen cells; IC values.
Comparison is made at doses in mg/ml for inhibiting 25%, 50% and 90% of the growth of spleen cells; IC values.
For the study of Citrimix as the calcium/potassium alpha hydroxy citric acid chelate compared to the ammonia chelate of hydroxy citric acid (Nu-Citrimix), inhibition growth of primary spleen cells after in vitro exposure in microtiter cell culture for 48 hours in the presence of mitogen (Con A, 2 ug/ml), was the bioassay procedure used (Akesson C., Lindgren H., Pero R. W., Leanderson T., Ivars F., “An extract of Uncaria Tomentosa inhibiting cell division and NF-kB activity without inducing cell death,” International Immunopharm 3:1889-1900, 2003).
The subject of a further data set is NF-kB. The data set can be described thus: NF-kB inhibition in Jurkat T cells. It counts as cell-based, human. As to conditions: FIG. 4. On the procedure: FIG. 4 illustrates the evaluation of NF-kB in Jurkat T cells as previously described in detail after treatment with quinic acid (H+), quinic aid ammonium chelate neutralized to pH=7.5 or the equivalent amount of […] (NH4Cl).
Independent inhibition of NF-kB by either QA or NH4+ ions. Human Jurkat T cells were incubated together with either QA, QA-NH4+ or NH4Cl, and the degree of inhibition of NF-kB evaluated as described elsewhere. See, FIG. 4. Parra E, et al., 1997. Mol Cell Biol 17:1324-23; Akesson, C., et al., Int. Immunopharmacol., 5(1):219 (2005).

For data set [2], the system named is human HL-60 leukemic cells. As to the kind of experiment: In vitro growth inhibition of cultured HL-60 cells by quinic acid salts/chelates (MTT). It counts as cell-based. The note with it: 72 hr, concentrations up to 3000 μg/ml. From the text: FIG. 1 illustrates in vitro growth inhibition expressed as IC50 values (i.e. the dose that inhibits 50% of growth) induced by various quinic acid salts, chelates or salts/chelates (molecular structure at saturation undetermined) in cultured HL-60 cells. QA-H+=free quinic acid (H+), QA-NH4.+=quinic acid ammonium chelate, QA-Na+=quinic acid sodium salt, QA-K+=quinic acid potaasium chelate, QA-Zn++=quinic acid zinc salt/chelate, QA-Li+=quinic acid lithium salt/chelate, Ca++=quinic acid calcium chelate, quinic acid histidine salt/chaelate=QA-histidine, quinic acid lysine salt/chelate=QA-lysine, and C-Med-100=non pH adjusted water extract.
For the study involving quinic acid salts and chelates (FIG. 1) quinic acid was purchased from Sigma (>99%). QA salts/chelates were synthesized by neutralization to pH=7.5 with the appropriate base, i.e., NH4OH, NaOH, Ca(OH)2, Zn(OH)2, LiOH, KOH, lysine or histidine. Serial dilutions of test compounds were added to human HL-60 leukemic cells (0.05×10^6 cells/ml) in 96-well, flat bottomed microtiter plates to give final concentrations in the cultures up to 3000 μg/ml. The plates were incubated for 72 hr at 37 C, pulsed with 20 μl MTT (5 mg/ml) for 3 hr, and the color estimated spectrophotometrically at 540 nm as described previously. (Schweitzer, C M et al. Spectrophotometric determination of clonogenic capacity of leukemic cells in semisolid microtiter culture systems. Experimental Hematology 21: 573-578, 1993). IC50 values were calculated and compared based on the live/dead ratio of cells.

For data set [3] the following is noted: 2700 μg/ml; Jacobsen et al 1978; cited from earlier work.
The conditions of data set [4]: lower animals, oral, highest dose tested 300-600 mg/kg; Adamson et al 1970; cited from earlier work.
In the next data set the test system is DNA repair. The data set can be described thus: DNA repair enhancement in vivo. An excerpt:
The discovery began in trying to explain the biological activity of a hot water extract of Cat's Claw bark, Uncaria tomentosa, called C-Med-100. […] After this initial biological characterization, the applicant has set forth to identify the natural product behind DNA repair enhancement as a potential anti-aging therapy. A series of chemical studies have led scientists to first identify carboxy alkyl esters (CAEs) as the bioactives and then it was followed by quinic acid esters (QAEs) being identified as the only bioactive CAEs in cat's claw water extracts. […] bioactive both in vitro and in vivo. […] However, quinic acid is present in water extracts of Cat's Claw as […] in effect in a pro-metabolite form since the QAEs would be hydrolyzed to quinic acid in the gastrointestinal tract.

The next data set concerns mouse spleen WBC. The data set can be described thus: Mouse spleen WBC after quinic acid oral administration. It counts as in vivo. The note with it: oral (gavage or drinking water), increased from 6.2. From the text:
(§1) Rat white blood cells (WBC) or mouse spleen WBC were increased in vivo after quinic acid oral administration either by gavage or in drinking water from 7.2 to >8.2×10^6 cells/ml or 6.2 to 8.3×10^9 cells/ml, respectively. […] If extrapolated into a lifespan which is logically reasonable, then living to an average age of 90 years would be increased to 112 years by ingesting optimal amounts of quinic acid during one's lifetime.

Data set [5] deals with Rat white blood cells (WBC). As to the kind of experiment: DNA damage recovery in the rat after DXR treatment, white blood cell count. The class given is in vivo. As to conditions: for Prevention of cell death after exposure to DNA damaging agent DXR: DXR treatment, WBC after 15 days.
Description: White blood cell (WBC) growth after 15 days estimated as 10^12WBC/liter blood. DXR=doxorubicin DNA damaging agent.
as §1

The conditions of data set [6]: rat, oral; Sheng et al 2005; cited from earlier work.
The conditions of data set [7]: mouse, drink water; Akesson et al 2005; cited from earlier work.
The conditions of data set [8]: human, oral, highest dose tested 90 mg/kg; Beer et al 1951, Adamson et al 1970; cited from earlier work.
Data set [9] can be described thus: Safety, toxicity and efficacy (Table 2), human. As to conditions: oral, highest dose tested 70 mg/kg, University of Lund human volunteer n = 2. It counts as in vivo. From the text:
Quinmax™ is substantially pure quinic acid neutralized with aqueous ammonia to pH=7.5. As a result, in water ammonium ions are also generated which in themselves have potent biological functions. Ammonium ions, for example, stimulate protein synthesis in the GI tract, neutralize lysosomal vesicles thus preventing oxidative stress DNA damage, and inhibit NF-kB mediated inflammatory responses. These are examples of additional biological properties of Quinmax™, which is devoid of any added-on toxicity. […] Jacobsen, L B, Richardson, C L, Floss, H G. 1978. Shikimic acid and quinic acid are not mutagenic in the Ames assay. Lloydia 41(5): 450-452. Here the most important consideration is to compare the highest doses of quinic acid exposure to those shown to have efficacy in various animal models. It is quite apparent that quinic acid doses that far exceed the known efficacious doses of quinic acid have been used in the various animal model systems.
Here the most important consideration is to compare the highest doses of quinic acid exposure to those shown to have efficacy in various animal models. It is quite apparent that quinic acid doses that far exceed the known efficacious doses of quinic acid have been used in the various animal model systems. […] Moreover, Quinmax™ is quinic acid neutralized with aqueous ammonia to pH=7.5. […]

The conditions of data set [10]: human, in vivo, po.
Description: Additional oral administration of high dose QA was carried out after ingestion of 6 gm Quinmax™ in human volunteers at the University of Lund. The purpose of this study was to determine if significant metabolism of QA to hippuric acid occurred when QA was administered in the ammonia chelated form as Quinmax™, a 1:1.6 molar ratio of QA to ammonia ions.
A apparently healthy volunteer drank 6 gm Quinmax™ dissolved in 300 ml water over a 15 min period, and then about 40 ml of peripheral blood (4-red topped vacutainers) were allowed to clot at room temperature to prepare serum samples by centrifugation. The serum sampling points were 0.7 hr, 1.7 hr, 2.7 hr, 3.7 hr, 10.5 hr 12.5 hr, 22 hr, 28 hr and 44 hr. 30 ml serum samples were precipitated with 50% ethanol, taken to dryness under a stream of air, and redissolved in 1 ml of methanol for simultaneous HPLC analysis of quinic acid and hippuric acid.
First to determine when peak serum concentrations of QA occurred and how long they would remain detectable.

Entries after “also recorded” stand apart in the source; their conditions may differ. Where two headings read alike, the source gives them in different places.

Take `Cl.N` [NH4Cl, reference compound]: in [1], the “IC25 growth of spleen cells (comparison in words)” value is on record as “comparable to the quinic acid ammonium chelate”, the “IC50 growth of spleen cells (comparison in words)” value was “comparable to the quinic acid ammonium chelate” and the “IC90 growth of spleen cells (comparison in words)” value was “comparable to the quinic acid ammonium chelate”. For the same compound, the “NF-kB inhibition (comparison in words)” value in the data set on NF-kB was “as effective as the quinic acid NH4+ chelate”.

Take `O=C([O-])C1(O)CC(O)C(O)C(O)C1.O=C([O-])C1(O)CC(O)C(O)C(O)C1.[Ca+2]` (stereo not drawn) [QA-Ca++, quinic acid calcium chelate]: the “IC50 growth inhibition of HL-60 cells (comparison in words)” value (shortened to “IC50 growth inhibition of HL-60 cells”) in data set [2] (FIG. 1) was “more effective than known salts such as QA-Na+”.

Consider `O=C(O)[C@]1(O)C[C@@H](O)[C@@H](O)[C@H](O)C1` [Quinic acid], for which the “Toxicity evaluated by mutagenicity in the Ames Assay” value in data set [3] was “did not demonstrate any toxicity”. Also, the Toxicity entry in data set [4] and in data set [8] was “None” throughout. The “DNA repair enhancing activity (comparison in words)” value in the data set on DNA repair is recorded as “as much DNA repair enhancing activity in vivo as did the QAEs”. For the same compound, the “Mouse spleen WBC after oral administration” value with mouse spleen WBC is 8.3 ×10^9 cells/ml. The “Increase in the protection of the DNA from becoming damaged and killing the cells” value in [5] (calculated from rat WBC and mouse spleen WBC increases) is listed as 13-25%. Further, in data set [5] (rat), the “Prevention of cell death after exposure to DNA damaging agent DXR” value is “prevent cell death”. For the same compound, the “Rat white blood cells (WBC) after oral administration” value in [5] (rat, oral (gavage or drinking water), increased from 7.2) is on record as > 8.2 ×10^6 cells/ml. Besides, the “Efficacy (efficacious dose)” value is “≦200 mg/kg” in data set [6] and 250 mg/kg in data set [7].

Regarding `N.O=C(O)[C@]1(O)C[C@@H](O)[C@@H](O)[C@H](O)C1` [Quinmax™, quinic acid ammonium chelate], the Toxicity entry in data set [9] is listed as “None”. Moreover, in data set [2] (FIG. 1, listed as QA-NH4+), the “IC50 growth inhibition of HL-60 cells” value is given as “more effective than known salts such as QA-Na+”. Also, in [2] (FIG. 1, listed as QA-NH4+ chelate), the “IC50 growth inhibition of HL-60 cells” value is listed as “much more biologically effective than any other salt or chelate; also recorded: as efficacious as the cat's claw water extract (C-Med-100)”. The “DNA repair enhancing activity (comparison in words)” value in the data set with DNA repair was “as efficacious as Cat's Claw water extracts such as C-Med-100”. The “Prevention of cell death after exposure to DNA damaging agent DXR” value in data set [5] (rat) was “prevent cell death”. Further, in [6], the “Efficacy (efficacious dose)” value was “≦200 mg/kg”. In addition, in data set [1], the “IC25 growth of spleen cells (comparison in words)” value is “dramatically lowering the IC25, IC50 and IC90 values compared to quinic acid (H+)”; the “IC50 growth of spleen cells (comparison in words)” value is “dramatically lowering the IC25, IC50 and IC90 values compared to quinic acid (H+)”; the “IC90 growth of spleen cells (comparison in words)” value was “dramatically lowering the IC25, IC50 and IC90 values compared to quinic acid (H+)”. In data set [10], the “Time during which hippuric acid could be measured in serum” value lay in the range of 3.7 to 12.5 h and the “Time of peak serum concentrations of QA” value is “around 10.5 hr”. For the same compound, the “NF-kB inhibition (comparison in words)” value in the data set on NF-kB was “enhanced NF-kB inhibition over quinic acid (H+)”.

These data come from patent US20090275656A1, “Medicinal Compositions of Salts, Chelates and/or Free Acids of Alpha Hydroxyl Organic Acids and Related Processes and Methods” (priority 2005, published 2009).
